Test results reported in ChEMBL document CHEMBL1201862, “PubChem BioAssay data set” (2004).
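Each compound was tested at five concentrations against cells in 96-well plates for 48 hours. GI50 marks 50% less growth.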 Activity calls are given as the source filed them. No stated cut-off is given here; in the data, active = GI50 up to about 1.1 µM and inactive = higher.

What was measured:
Test in all cases: DTP human tumour cell line panel, 48 h
EKVX = system: EKVX
HCC 2998 = system: HCC 2998
HCT-116 = system: HCT-116
HCT-15 = system: HCT-15
HOP-62 = system: HOP-62
KM12 = system: KM12
MOLT-4 = system: MOLT-4
NCI-H23 = system: NCI-H23
NCI-H460 = system: NCI-H460
RPMI-8226 = system: RPMI-8226
RXF 393 = system: RXF 393
SF-268 = system: SF-268
SF-295 = system: SF-295
SK-MEL-5 = system: SK-MEL-5
SK-OV-3 = system: SK-OV-3
SNB-19 = system: SNB-19
SR = system: SR
U-251 = system: U-251
COLO 205 = system: COLO 205
DU-145 = system: DU-145

Measured: GI50

CN(C)C(=N)NC(=S)N(C)C
> 100 µM: HCT-15
inactive: EKVX > 100 µM | HCC 2998 > 100 µM | HCT-116 > 100 µM | HOP-62 > 100 µM | KM12 > 100 µM | MOLT-4 > 100 µM | NCI-H23 > 100 µM | NCI-H460 > 100 µM | RPMI-8226 > 100 µM | RXF 393 > 100 µM | SF-268 > 100 µM | SF-295 > 100 µM | SK-MEL-5 > 100 µM | SK-OV-3 > 100 µM | SNB-19 > 100 µM | SR > 100 µM | U-251 > 100 µM

CC(=O)Oc1cc(Cl)c(OC(C)=O)c2c(OC(C)=O)c(C)c(O[Si](C)(C)C(C)(C)C)cc12
inactive: COLO 205 15.1 µM | EKVX 18.7 µM | HCC 2998 4.46 µM | HCT-116 3.35 µM | HOP-62 19.1 µM | KM12 12.8 µM | MOLT-4 3.31 µM | NCI-H23 4.18 µM | NCI-H460 3.79 µM | RPMI-8226 2.93 µM | RXF 393 3.28 µM | SF-268 11.5 µM | SF-295 11 µM | SK-MEL-5 4.41 µM | SNB-19 12.8 µM | SR 3.62 µM | U-251 2.32 µM
4.76 µM: HCT-15

C/C(=N/Nc1ccc([N+](=O)[O-])cc1[N+](=O)[O-])C(CC(C(=O)NCc1ccccc1)/C(C)=N\Nc1ccc([N+](=O)[O-])cc1[N+](=O)[O-])C(=O)NCc1ccccc1 (stereo not given)
10.3 µM: HCT-15
inactive: COLO 205 13.5 µM | EKVX 12.7 µM | HCC 2998 13.2 µM | HCT-116 4.88 µM | HOP-62 3.88 µM | KM12 4.86 µM | NCI-H23 13.3 µM | NCI-H460 5.51 µM | RPMI-8226 14.7 µM | RXF 393 4.24 µM | SF-268 4.42 µM | SF-295 5.89 µM | SK-OV-3 15.6 µM | SNB-19 15.2 µM | SR 9.1 µM | U-251 3.25 µM

CN(C)[C@@H]1C(O)=C(C(=O)NCN2CCN(C(=N)NC(=N)N)CC2)C(=O)[C@@]2(O)C(O)=C3C(=O)c4c(O)cccc4[C@@](C)(O)[C@H]3C[C@@H]12
0.0721 µM: HCT-15
inactive: HOP-62 1.14 µM | SK-OV-3 1.29 µM
active: COLO 205 0.0798 µM | EKVX 0.286 µM | HCC 2998 0.337 µM | HCT-116 0.221 µM | KM12 0.368 µM | MOLT-4 0.0597 µM | NCI-H23 0.136 µM | NCI-H460 0.324 µM | RPMI-8226 0.0315 µM | RXF 393 0.12 µM | SF-268 0.518 µM | SF-295 0.506 µM | SK-MEL-5 0.183 µM | SNB-19 0.314 µM | SR 0.0406 µM | U-251 0.269 µM

C/C(=N\O)C(CN(C)C)C(c1ccccc1)c1c(O)c2ccccc2oc1=O (stereo not given)
inactive: COLO 205 > 100 µM | EKVX > 100 µM | HCC 2998 > 100 µM | HCT-116 > 100 µM | HOP-62 > 100 µM | KM12 > 100 µM | MOLT-4 > 100 µM | NCI-H23 > 100 µM | RPMI-8226 > 100 µM | RXF 393 > 100 µM | SF-268 > 100 µM | SF-295 > 100 µM | SK-MEL-5 > 100 µM | SK-OV-3 > 100 µM | SNB-19 > 100 µM | SR > 100 µM | U-251 > 100 µM
> 100 µM: HCT-15

NCCC(=O)NC(Cc1c[nH]cn1)C(=O)O (stereo not given)
inactive: COLO 205 > 100 µM | DU-145 > 100 µM | EKVX > 100 µM | HCC 2998 > 100 µM | HCT-116 > 100 µM | HOP-62 > 100 µM | KM12 > 100 µM | MOLT-4 > 100 µM | NCI-H23 > 100 µM | NCI-H460 > 100 µM | RPMI-8226 > 100 µM | SF-268 > 100 µM | SF-295 > 100 µM | SK-MEL-5 > 100 µM | SNB-19 > 100 µM | U-251 > 100 µM
> 100 µM: HCT-15

O=S1(=O)C[C@@H](O)[C@H](O)CS1
inactive: COLO 205 > 100 µM | EKVX > 100 µM | HCC 2998 > 100 µM | HCT-116 > 100 µM | HOP-62 > 100 µM | KM12 > 100 µM | MOLT-4 > 100 µM | NCI-H23 > 100 µM | NCI-H460 > 100 µM | RPMI-8226 > 100 µM | RXF 393 > 100 µM | SF-268 > 100 µM | SF-295 > 100 µM | SK-MEL-5 > 100 µM | SK-OV-3 > 100 µM | SNB-19 > 100 µM | SR > 100 µM | U-251 > 100 µM
